Measurements: patent US10844054B2, “Compounds for pain treatment, compositions comprising same, and methods of using same” (CERSCI THERAPEUTICS, INC., priority 2018, dated 2020)
Like-named read-outs stand apart in the source and are kept apart here.

Experiments:
[1] = system: carrageenan-induced thermal hyperalgesia and edema; assay: Intraplantar carrageenan model of acute inflammatory pain (Hargreaves test, paw volume); type: in vivo, rat; details: 30 mg/kg p.o., dosed preemptively, assessed 4 h post-carrageenan
Description: The intraplantar carrageenan model of acute inflammatory pain in the rat results in behaviors similar to that observed in patients and has been widely used to assess novel pharmacological treatments (Whiteside, et al., 2005, J. Pharmacol. Exp. Ther. 314:1234-1240).
For this assay, paw withdrawal latency to a thermal stimulus was assessed using a radiant heat source (Ugo Basile, Italy) aimed at the plantar surface of the left hind paw (Hargreaves test). A cut-off latency of 40 sec is set to avoid tissue damage. Paw volume was measured by displacement of water and assuming a tissue density equal to that of water. Baseline latencies were taken prior to carrageenan administration and re-assessed 4 h later. Compounds of the invention or vehicle were administered (10 and 30 mg/kg, p.o.) 3 h after carrageenan (curative) and behavior assessed 1 h later. Additionally, compounds of the invention were administered 15 minutes prior to carrageenan (preemptive) and behavior assessed 4 h post carrageenan. Indomethacin (positive control, 30 mg/kg p.o.) was administered prior to carrageenan and behavior assessed 4 h post-carrageenan.
Intraplantar injection of carrageenan was performed under 2.5-4.0% isoflurane/O2 anesthesia, delivered via nose cone. After induction of anesthesia, the injection site was prepared in a sterile manner and 50 μL of a 2% λ-carrageenan was injected. […]

[2] = Inhibition of SIN1-mediated peroxynitrite oxidation of luminol (L-012 assay); type: biochemical; details: for Peroxynitrite gen (% control, 10 μM): compound at 10 μM, SIN-1 100 μM, L-012, PBS pH 8.5
Description: Luminol-like compounds such as L-012 are chemilumescent probes that are oxidized by the presence of ROS and RNS such as peroxynitrite. In this assay L-012 is oxidized by the addition of 3-morpholino-sydnonimine (SIN-1), a known peroxynitrite generator. The emitted luminescence is directly proportional to the concentration of SIN-1. The compounds were assessed for their ability to neutralize/scavenge/decompose peroxynitrite by blocking the increase of peroxynitrite induced chemilumescence. Concentrations of compound producing 50% inhibition of the luminescence signal (IC50 values) were calculated by testing the compounds at various concentrations of two parallel measurements.
Stock solution (10 mM) of compounds were prepared in 100% DMSO.
The following solutions were added to white polystyrene, non-sterile 96-well plate (Thermo Scientifi NUNC™ 96 MICROWELL™ White Polystyrene Plates #447796): • 10 μL SIN-1 2 mM in 100% DMSO solution (SIN-1 final concentration 100 DMSO final volume—5%); • 190 μL L012+/−test compound in phosphate-buffered solution (PBS, pH=8.5) (L012 final concentration 100 μM).
Luminescence signal was recorded by Hidex Sense multimodal microplate reader (Hidex) at 30° C. for 30 min, with a measurement every 60 sec and an integration time of 1 sec.
IC50 values were calculated using two different methods; first by measuring the slopes of the steepest linear portion of the kinetic profile during the first 5 min (as % from control) and secondly, by measuring the maximal luminiscence at 30 min time point (as % from control). IC50 values of the tested compounds were calculated using GraphPad Prism 5.0 software package.

[3] = system: nerve injury induced tactile allodynia; assay: Rat spinal nerve ligation (SNL) model, tactile allodynia (von Frey); type: in vivo; details: 100 mg/kg i.p.
Description: The spinal nerve ligation (SNL) model of neuropathic pain in the rat results in behaviors similar to that observed in patients (Kim & Chung, 1992, Pain 50(3):355-63) and has been widely used to assess novel pharmacological treatments (Sindrup & Jensen, 1999, Pain 83(3):389-400). Compounds of the invention were evaluated for its ability to reverse or prevent development of tactile allodynia in a rat model of neuropathic pain.
The positive control was gabapentin (Toronto Research Chemicals, Canada). The negative control was vehicle (0.5% methyl cellulose; 2-hydroxy-propyl-beta-cyclodextrin). Male Sprague-Dawley Rats (Harlan, 11) were 250-300 g at time of dosing. […]
The effect of compounds of the invention on nerve injury induced tactile allodynia was investigated using von Frey filaments 1-3 weeks after tight ligation of the LS spinal nerve. Tactile thresholds were assessed using a series of calibrated von Frey monofilaments (Stoelting, Wood Dale, Ill.). Assessment of tactile allodynia was measured as the hind paw-withdrawal threshold that produced a 50% likelihood of a withdrawal using the up-down method. Thresholds were evaluated before surgery, and they were reassessed 1-3 weeks after SNL surgery. […] Tactile thresholds were again assessed either 1 and 3 h, 3 and 5 h or once weekly after administration. […]

[4] = system: latency to fall from rotarod; assay: Accelerating rotarod assay of ataxia; type: in vivo, rat; details: 3 mg/kg p.o., 1 h post-administration
Description: Ataxia is a common clinical problem with CNS-active compounds and can often confound interpretation of efficacy in preclinical pain models. The rotarod assay of ataxia has been widely used to assess the side-effect liability of novel pharmacological treatments (Jones & Roberts, 1968, J. Pharm. Pharmacol. 20:302-04).
The effect of compounds of the invention to impact latency to fall in an accelerating rotarod assay of ataxia in rats was evaluated. The positive control was haloperidol (Sigma, St. Louis), and the negative control was vehicle (which was hydroxypropylmethyl-cellulose and 15% DMA, 65% PEG300, and 20% D5W for haloperidol).
Male Sprague-Dawley Rats (Harlan, Ill.) were 250-300 g at time of dosing. Rotarod was obtained from IITC, CA. To examine the potential effects of compounds of the invention on motor performance, rats were tested on an accelerating rotarod (IITC, Ca). In this assay, rats were placed on the rotarod with the speed set to accelerate from 4 to 40 rpm over 300 sec. The maximum time spent on the rotarod was set at 300 seconds. Rats received two timed training trials (averaged to give the reported baseline) on the first day, then 24 h later rats were administered compound of the invention (30, 100 and 300 mg/kg, p.o.), haloperidol (3 mg/kg, p.o.) or vehicle.

[5] = from maximal luminescence at 30 min time point, read-out: IC50 (μM) (% luminol absorb. @ 30 min)
[6] = from slopes of steepest linear portion of kinetic profile during first 5 min, read-out: IC50 (μM) (% PN gen)

COc1ccc2c(c1)c(CC(=O)O)c(C)n2C(=O)c1ccc(Cl)cc1 [indomethacin]
prevention of carrageenan-induced edema (paw volume) [1]: statistically significant prevention
prevention of carrageenan-induced thermal hyperalgesia [1]: statistically significant prevention

CC1(C)SC(Nc2cccnc2O)=N[C@@H]1C(=O)O.Cl [Compound 22a, (R)-2-((2-Hydroxypyridin-3-yl)amino)-5,5-dimethyl-4,5-dihydrothiazole-4-carboxylic acid hydrochloride]
Peroxynitrite gen (% control, 10 μM) [2]: 96 % control
IC50 [2, 5]: > 10 µM
IC50 [2, 6]: > 10 µM

CC1(C)SC(Nc2cccnc2O)=N[C@H]1C(=O)O.Cl [Compound 23a, (S)-2-((2-Hydroxypyridin-3-yl)amino)-5,5-dimethyl-4,5-dihydrothiazole-4-carboxylic acid hydrochloride]
Peroxynitrite gen (% control, 10 μM) [2]: 67 % control
IC50 [2, 5]: > 10 µM
IC50 [2, 6]: > 10 µM

Cl.O=C(O)[C@@H]1CSC(Nc2cnccc2O)=N1 [Compound 25a, (R)-2-((4-Hydroxypyridin-3-yl)amino)-4,5-dihydrothiazole-4-carboxylic acid hydrochloride]
Peroxynitrite gen (% control, 10 μM) [2]: 111 % control
IC50 [2, 5]: > 10 µM
IC50 [2, 6]: > 10 µM

NCC1(CC(=O)O)CCCCC1 [gabapentin]
reversal of tactile allodynia [3]: statistically significant reversal of allodynia

CC1(C)SC(Nc2cnccc2O)=N[C@@H]1C(=O)O.Cl [Compound 12a, (R)-2-((4-Hydroxypyridin-3-yl)amino)-5,5-dimethyl-4,5-dihydrothiazole-4-carboxylic acid hydrochloride]
Peroxynitrite gen (% control, 10 μM) [2]: 82 % control
IC50 [2, 5]: > 10 µM
IC50 [2, 6]: > 10 µM

Cl.O=C(O)[C@@H]1CSC(Nc2ncccc2O)=N1 [Compound 7a, (R)-2-((3-hydroxypyridin-2-yl)amino)-4,5-dihydrothiazole-4-carboxylic acid hydrochloride]
Peroxynitrite gen (% control, 10 μM) [2]: 0 % control
IC50 [2, 5]: 1.8 µM
IC50 [2, 6]: 0.17 µM

CC1(C)SC(Nc2ccncc2O)=N[C@@H]1C(=O)O.Cl [Compound 17a, (R)-2-((3-Hydroxypyridin-4-yl)amino)-5,5-dimethyl-4,5-dihydrothiazole-4-carboxylic acid hydrochloride]
Peroxynitrite gen (% control, 10 μM) [2]: 75 % control
IC50 [2, 5]: > 10 µM
IC50 [2, 6]: > 10 µM

CC1(C)SC(Nc2ccncc2O)=N[C@H]1C(=O)O.Cl [Compound 18a, (S)-2-((3-Hydroxypyridin-4-yl)amino)-5,5-dimethyl-4,5-dihydrothiazole-4-carboxylic acid hydrochloride]
Peroxynitrite gen (% control, 10 μM) [2]: 77 % control
IC50 [2, 5]: > 10 µM
IC50 [2, 6]: > 10 µM

Cl.O=C(O)[C@H]1CSC(Nc2ncccc2O)=N1 [Compound 8a, (S)-2-((3-hydroxypyridin-2-yl)amino)-4,5-dihydrothiazole-4-carboxylic acid hydrochloride]
Peroxynitrite gen (% control, 10 μM) [2]: 0 % control
IC50 [2, 5]: 2.1 µM
IC50 [2, 6]: 0.23 µM

O=C(CCCN1CCC(O)(c2ccc(Cl)cc2)CC1)c1ccc(F)cc1 [haloperidol]
motor performance / latency to fall in rotarod [4]: significant motor deficits

CC1(C)SC(Nc2ncccc2O)=N[C@@H]1C(=O)O.Cl [Compound 4a, (R)-2-(3-Hydroxy-pyridin-2-ylamino)-5,5-dimethyl-4,5-dihydro-thiazole-4-carboxylic acid hydrochloride]
Peroxynitrite gen (% control, 10 μM) [2]: 0 % control
IC50 [2, 5]: 1.8 µM
IC50 [2, 6]: 0.26 µM

CC1(C)SC(Nc2ncccc2O)=N[C@H]1C(=O)O.Cl [Compound 5a, (S)-2-(3-Hydroxy-pyridin-2-ylamino)-5,5-dimethyl-4,5-dihydro-thiazole-4-carboxylic acid hydrochloride]
Peroxynitrite gen (% control, 10 μM) [2]: 0 % control
IC50 [2, 5]: 1.6 µM
IC50 [2, 6]: 0.17 µM

Cl.O=C(O)[C@@H]1CSC(Nc2ccncc2O)=N1 [Compound 27a, (R)-2-(3-Hydroxy-pyridin-4-ylamino)-4,5-dihydro-thiazole-4-carboxylic acid hydrochloride]
Peroxynitrite gen (% control, 10 μM) [2]: 61 % control
IC50 [2, 5]: > 10 µM
IC50 [2, 6]: > 10 µM
